This assay deals with P. acnes strains. Nature of the assay: Porphyrin production by P. acnes strains in culture media (iron/cobalt supplemented or depleted). It counts as cell-based, Propionibacterium acnes.

`[Co]` [cobalt]: the porphyrin production entry (depletion of cobalt, P. acnes (FIG. 5)) is “significantly promoted the porphyrin production”.
On to `[Fe]` [iron], for which the porphyrin production result (acne associated P. acnes strains (FIG. 4)) was “reduces porphyrin production”; the porphyrin production entry (iron depletion, acne associated P. acnes strains (FIG. 6)) is “increases porphyrin production”; the porphyrin production result (iron supplemented in the media, P. acnes strains (FIG. 1)) is given as “low porphyrin production”. Besides, the “chelator effect on porphyrin production” value (iron added back to iron depleted (chelated) media, P. acnes strains (FIG. 4)) is “diminishes chelator effect”. The “effect of iron depletion on porphyrin production” value (vitamin B12 supplemented conditions, acne associated P. acnes strains (FIG. 6)) is reported as “remains”.

The values above are taken from patent US20220257646A1, “COMPOSITIONS AND METHODS FOR TREATING SKIN CONDITIONS” (The Regents of the University of California, priority 2019, published 2022).
